Laboratory results taken from patent EP2249889B1, “CRYSTALLINE SURGICAL IMPLANT COMPOSITE MATERIALS AND KITS AND METHODS OF MANUFACTURE” (Sandvik Intellectual Property AB, priority 2008, dated 2009).
≈ marks a conversion by molar mass, not a printed value.

What was measured:
[1] = type: physicochemical; settings: for anticipated release time: assuming constant release rate until coatings are emptied, including the 22 hours of release before hydrochloric acid treatment; for drug release rate: from HA coating in PBS at room temperature, between 2 and 22 hours after start; for duration of initial rapid drug release (burst): from HA coatings, loading times 15 minutes, 1 hour, 24 hours
Experimental: The drug loading was performed at room temperature in 50 ml conical test tubes for four different soaking times between 15 minutes and 24 hours. […] The liquid was circulated through a cell in which the drug concentration was detected. After the release in PBS, the HA coatings soaked for 24 hours in the antibiotic solutions were dissolved by lowering the pH of the PBS to 2 by addition of hydrochloric acid. This was done to release and measure the amount of remaining drugs still present in the coatings after 22 hours of release. To relate the antibiotics concentration released to the antibacterial effect, antimicrobial susceptibility tests (E-test, AB Biodisk, Sweden) for Amoxicillin and Cephalothin was performed on strain S aureus Cowan I and on Staphylococcus epidermidis Kx293A1 (Department of Microbiology, Swedish University of Agricultural Sciences).

[2] = test system: Staphylococcus aureus strain Cowan I; experiment: Inhibition zones of bacterial growth in bacteria agar around antibiotic loaded HA coated plates; type: cell-based; settings: loading 15 minutes to 24 hours; release in PBS 15 minutes to 24 hours before agar; incubated 37°C 18 hours
Experimental: The incorporation of antibiotics was preformed by soaking the HA coated plates in 10 ml PBS containing 50 µg of either Tobramycin, Cephalotin, Amoxicillin or Gentamicin sulfate (Sigma-Aldrich Company Ltd.). The drug loading was performed at room temperature in 50 ml conical test tubes for four different soaking times between 15 minutes and 24 hours.
After incorporation of antibiotics, the plates were immediately transferred to new tubes filled with 40 ml of PBS preheated to 37°C in order to let the incorporated drug leak out for various time intervals before monitoring the antibacterial effect of the drug remaining in the coatings. After either 15 minutes, 60 minutes or 24 hours, the plates were removed and dried at room temperature for further analysis of the remaining antibacterial effect in the Staphylococcus aureus agar described below.
A Mueller-Hinton broth (Merck) containing 0.8% Agar was prepared by dissolving the powder in de-ionized water and sterilized by autoclaving at 121°C for 20 minutes. The broth was then tempered to 40°C in a water bath. Staphylococcus aureus strain Cowan I (NCTC 8530, National Collection of Type Cultures, London, UK) in a PBS suspension was added directly to the broth giving it a final optical density at 600 nm of 0.005 (corresponding to approximately 5x10^6 cfu/ml). The mixture was mixed to homogenously distribute the bacteria in the substrate and then transferred to Petri dishes. The dishes were filled to a depth of 10 mm (50 ml) with the bacterial broth. As the agar stiffened at room temperature, the titanium plates were stuck down in the agar at a right angle to the surface, having both sides in contact with the bacterial substrate. The Petri dishes were then incubated at 37°C for 18 hours. A HA coated reference plate without any antibiotics was also tested. The inhibition zones of bacterial growth formed around the plates were photographed by an imaging instrument (Geldoc 2000, Bio-Rad).

[3] = test system: Staphylococcus epidermidis Kx293A1; experiment: E-test antimicrobial susceptibility test (MIC); type: cell-based; settings: inhibiting bacteria in 1 ml broth
Experimental: (§1) The drug release rate was analyzed using UV spectroscopy (Shimadzu 1650PC, Shimadzu Corp.) by immersing plates that had been soaked in Amoxicillin and Cephalothin for 15 minutes, 1 hour and 24 hours in 8.2 ml of either water or PBS at room temperature. The release was measured (using a wavelength Of 230 nm for Amoxicillin and 239 nm for Cephalothin) in water for 1 hour to investigate the initial release and then in PBS for 22 hours to investigate the slow release after the initial burst. The liquid was circulated through a cell in which the drug concentration was detected. After the release in PBS, the HA coatings soaked for 24 hours in the antibiotic solutions were dissolved by lowering the pH of the PBS to 2 by addition of hydrochloric acid. This was done to release and measure the amount of remaining drugs still present in the coatings after 22 hours of release. To relate the antibiotics concentration released to the antibacterial effect, antimicrobial susceptibility tests (E-test, AB Biodisk, Sweden) for Amoxicillin and Cephalothin was performed on strain S aureus Cowan I and on Staphylococcus epidermidis Kx293A1 (Department of Microbiology, Swedish University of Agricultural Sciences).
(§2) Table 1 presents the concentration of Amoxicillin and Cephalothin that has to be present to ensure killing of S. aureus and S. epidermidis, as divulged from the antimicrobial susceptibility tests. Table 1: Result from E-test for antimicrobial susceptibility testing, determining the minimum inhibitory concentration (MIC) of antimicrobial agents against microorganisms (inhibiting bacteria in 1 ml broth).

S aureus Cowan I = experiment: E-test antimicrobial susceptibility test (MIC); type: cell-based; settings: Staphylococcus aureus, inhibiting bacteria in 1 ml broth
Experimental: as §1, §2

[4] = Release and content of Amoxicillin from HA coatings loaded with pamidronate and Amoxicillin (methods of Examples 8 and 9); type: physicochemical

| Compound | anticipated release time [1] | amount of antibiotics remaining in the coating after 22 hours of release ([1]; buffer) | drug release rate [1] | duration of initial rapid drug release (burst) [1] | antibacterial effect (inhibition zone, clear agar closest to the plates) [2] | MIC [3] | MIC (S aureus Cowan I) | time for which a therapeutically significant dose of amoxicillin was released ([4]; Example 10: co-loading, 10 ml PBS, 6 mg pamidronate disodium salt hydrate, 100 µg Amoxicillin, 50 °C, 25 minutes, rinsed 5 minutes in PBS) | time for which a therapeutically significant dose of amoxicillin was released ([4]; Example 11: sequential loading, 7 mg pamidronate 40°C 12 minutes, then 70 µg Amoxicillin 40°C 15 minutes, soaked in PBS 7 minutes) |
| --- | --- | --- | --- | --- | --- | --- | --- | --- | --- |
| CC(=O)OCC1=C(C(=O)O)N2C(=O)[C@@H](NC(=O)Cc3cccs3)[C@H]2SC1 [Cephalothin] | 63 h | ~ 18 µg | 0.22±0.06 µg/h·cm^2 | less than 10 minutes | the antibiotic effect was preserved | 0.064 µg/mL (≈ 0.161 µM) | 0.064 µg/mL (≈ 0.161 µM) | – | – |
| Gentamicin sulfate | – | – | – | – | the antibiotic effect was preserved | – | – | – | – |
| CC1(C)S[C@@H]2[C@H](NC(=O)[C@H](N)c3ccc(O)cc3)C(=O)N2[C@H]1C(=O)O [Amoxicillin] | 27 h | – | 0.42±0.10 µg/h·cm^2 | less than 10 minutes | the antibiotic effect was preserved | 0.19 µg/mL (≈ 0.52 µM) | 0.064 µg/mL (≈ 0.175 µM) | 7 days | 6 days |
| NC[C@H]1O[C@H](O[C@H]2[C@H](O)[C@@H](O[C@H]3O[C@H](CO)[C@@H](O)[C@H](N)[C@H]3O)[C@H](N)C[C@@H]2N)[C@H](N)C[C@@H]1O [Tobramycin] | – | – | – | – | the antibiotic effect was preserved | – | – | – | – |
